Data set [1] is described as follows: Circular dichroism spectroscopy, helical residues per peptide chain. The following applies: [Ala1,Arg19]hPTH(1-31)NH2 analogs; calculated from [θ]222. Type of data set: physicochemical. How it is done: Circular Dichroism—CD spectra were obtained on a JASCO J-600 spectropolarimeter at 20° C. Four spectra were averaged and the data smoothed by the JASCO software. The instrument was calibrated with ammonium (+)-10-camphorsulfonate. Peptide concentrations were verified from the absorption at 280 nm, using an extinction coefficient of 5700 M^−1 for the single tryptophan. Data are expressed as the number of helical residues per peptide chain, as calculated from −[θ]222×30/28,000, where [θ]222 is the mean residue elipticity ([θ]) at 222 nm, as was described previously (Barbier, J. R., et al. (2005) J Biol Chem. 280:23771-23777).

A further data set addresses T1, PTHR-delNt (Homo sapiens, UniProt Q03431, DEL24-181).
T1 construct: expressed in transfected cells; host or cells: COS-7 cells, transient co-transfection; membranes prepared
T1 sequence (Q03431 with tags, fused parts or gaps DEL24-181): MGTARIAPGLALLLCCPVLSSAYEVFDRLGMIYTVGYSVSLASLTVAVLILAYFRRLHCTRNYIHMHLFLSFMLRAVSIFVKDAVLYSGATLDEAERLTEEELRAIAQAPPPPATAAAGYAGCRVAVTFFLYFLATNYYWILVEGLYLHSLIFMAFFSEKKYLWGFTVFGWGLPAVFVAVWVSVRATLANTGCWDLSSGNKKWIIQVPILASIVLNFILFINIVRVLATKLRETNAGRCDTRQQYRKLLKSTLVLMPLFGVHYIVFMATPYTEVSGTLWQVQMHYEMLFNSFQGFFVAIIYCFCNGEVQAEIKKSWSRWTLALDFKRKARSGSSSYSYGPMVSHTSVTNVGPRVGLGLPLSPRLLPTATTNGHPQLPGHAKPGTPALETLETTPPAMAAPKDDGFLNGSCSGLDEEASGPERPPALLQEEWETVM
Briefly: Competition binding in COS-7 cell membranes with 125I-[Aib1,3,M]PTH(1-15)NH2 tracer. The following applies: for reduction (alteration) of binding affinity for PTHR-delNt relative to parent peptide: versus the respective parent peptide; for IC50: COS-7 membranes cotransfected with negative-dominant Gαs. The procedure:
PTHR-delNt is a derivative of the human PTHR that is deleted for most (Ala^24-Arg^181) of the amino-terminal extracellular domain (Shimizu, M., et al. (2001) Endocrinology 142:3068-3074). This PTHR construct was expressed in COS-7 cells via transient DNA transfection. For cAMP assays, the cells were transfected in 24-well plates using 0.2 μg of plasmid DNA and 0.6 μl of Fugene-6 reagent (Roche Diagnostics, Indianapolis Ind.) per well, and assays were performed on the intact cells three to four days after transfection. For binding assays, cell membranes were prepared from transfected COS-7 cells. To increase the maximal binding of ^125I-[Aib^1,3,M]PTH(1-15)NH2 to PTHR-delNt in these membranes, the cells were cotransfected with a negative dominant mutant Gαs protein (Gαs^ND). This mutant Gαs subunit is thought to couple to cognate receptors, and thus stabilize high affinity receptor conformations, more efficiently than does wild-type Gαs, without increasing basal cAMP levels (Berlot, C. H. (2002) J Biol Chem 277:21080-5). A precursor of this mutant Gαs, Gαs(α3β5), was recently used to increase binding of ^125I-[Aib^1,3,M]PTH(1-15)NH2 to PTHR-delNt in COS-7 cell membranes (Dean, T., (2006) Mol Endocrinol 20:931-942). Gαs^ND, which contains the same five amino acid replacement of corresponding Gαi residues in the α3β5 loop as Gαs(α3β5), plus the point mutations of Gly^226 to Ala, which increases affinity for Gβ/γ, and Ala^366 to Ser, which decreases affinity for GDP, yields approximately two-fold higher levels of specific binding of ^125I-[Aib^1,3,M]PTH(1-15)NH2 than does Gαs(α3β5) (data not shown). For the current membrane preparations, COS-7 cells were co-transfected in six-well plates using 1 μg of each plasmid DNA encoding PTHR-delNt and Gαs^ND, and 6 μl of Fugene-6 reagent (Roche Diagnostics, Indianapolis Ind.) per well. Cells were harvested three days after transfection, and membranes were prepared as described (Dean, T., et al. (2006) Mol Endocrinol 20:931-942).
Receptor binding—Binding to the wild-type human PTHR in intact HKRK-B7 cells and ROS 17/2.8 cells was assessed using ^125I-PTH(1-34) as a tracer radioligand, as described (Shimizu, M., (2001) Endocrinology 142:3068-3074). In brief, the cells in 24-well plates (about 500,000 cells per well) were incubated in binding buffer containing radioligand (about 100,000 cpm per well) with or without unlabeled peptide ligand (3×10^−9 to 1×10^−5 M) for four hours at 15° C. The binding mixture was then removed by aspiration, the cells were rinsed three times with binding buffer, lysed in 1 M NaOH, and the entire lysate was counted for gamma-irradiation in a gamma counter. Binding to PTHR-delNt in COS-7 cell membranes was assessed in 96-well, vacuum filtration plates (Multiscreen-Durapore HV, […] membranes, Millipore Corp., Millford, Mass.) using ^125I-[Aib^1,3,M]PTH(1-15)NH2 as a tracer radioligand, as described (Dean, T., (2006) Mol Endocrinol 20:931-942). In brief, cell membranes (20 μg/well) were incubated in membrane binding buffer containing radioligand (30,000 cpm/well) with or without unlabeled peptide ligand (3×10^−9 to 1×10^−5 M) for 90 minutes at 21° C. The plates were then subject to rapid vacuum filtration, the filters were washed once with buffer, detached from the plate and counted for gamma-irradiation in a gamma counter. Non-specific binding was defined as the binding observed in the presence of 1×10^−6 M PTH(1-31)NH2 for HKRK-B7 and ROS 17/2.8 cells, and 1×10^−6 M [Aib^1,3,M]PTH(1-15)NH2 for PTHR-delNt. Specifically bound radioactivity was calculated as a percentage of the radioactivity specifically bound in the absence of competing ligand. […]

[2] abbreviates: [Ala1,Arg19]hPTH(1-31)NH2 analogs, read-out: PTHR-delNT (COS-7) IC50.

Like-named read-outs stand apart in the source and are kept apart here. Where a SMILES comes first, the peptide text is derived from it. Where no end group is shown, it is not given here. [ ]: non-standard residue; d: D form. Cha = N[C@@H](CC1CCCCC1)C(=O)O

A word on the IC50: it is the concentration that gives 50% inhibition.

Take `CC[C@H](C)[C@H](NC(=O)[C@H](CCC(=O)O)NC(=O)[C@H](CO)NC(=O)[C@@H](NC(=O)[C@H](C)N)C(C)C)C(=O)N[C@@H](CCC(N)=O)C(=O)N[C@@H](CC(C)C)C(=O)N[C@@H](CCSC)C(=O)N[C@@H](Cc1c[nH]cn1)C(=O)N[C@@H](CC(N)=O)C(=O)N[C@@H](CC(C)C)C(=O)NCC(=O)N[C@@H](CCCCN)C(=O)N[C@@H](Cc1c[nH]cn1)C(=O)N[C@@H](CC(C)C)C(=O)N[C@@H](CC(N)=O)C(=O)N[C@@H](CO)C(=O)N[C@@H](CCSC)C(=O)N[C@@H](CCCNC(=N)N)C(=O)N[C@@H](CCCNC(=N)N)C(=O)N[C@H](C(=O)N[C@@H](CCC(=O)O)C(=O)N[C@@H](Cc1c[nH]c2ccccc12)C(=O)N[C@@H](CC(C)C)C(=O)N[C@@H](CCCNC(=N)N)C(=O)N[C@@H](CC1CCCCC1)C(=O)N[C@@H](CCCCN)C(=O)N[C@@H](CC(C)C)C(=O)N[C@@H](CCC(N)=O)C(=O)N[C@@H](CC(=O)O)C(=O)N[C@H](C(N)=O)C(C)C)C(C)C` [Lys^26→Cha] (H-AVSEIQLMHNLGKHLNSMRRVEWLR[Cha]KLQDV-NH2; N-terminus assumed): the CD helical residues in data set [1] is on record as 6. In addition, on PTHR-delNt (COS-7 membranes), the “reduction (alteration) of binding affinity for PTHR-delNt relative to parent peptide” value is given as “approximately five- to seven-fold”. Moreover, the IC50 on PTHR-delNt (setting [2]) stood at 1870 ± 281 nM.

Take `CC[C@H](C)[C@H](NC(=O)[C@H](CCC(=O)O)NC(=O)[C@H](CO)NC(=O)[C@@H](NC(=O)[C@H](C)N)C(C)C)C(=O)N[C@@H](CCC(N)=O)C(=O)N[C@@H](CC(C)C)C(=O)N[C@@H](CCSC)C(=O)N[C@@H](Cc1c[nH]cn1)C(=O)N[C@@H](CC(N)=O)C(=O)N[C@@H](CC(C)C)C(=O)NCC(=O)N[C@@H](CCCCN)C(=O)N[C@@H](Cc1c[nH]cn1)C(=O)N[C@@H](CC(C)C)C(=O)N[C@@H](CC(N)=O)C(=O)N[C@@H](CO)C(=O)N[C@@H](CC1CCCCC1)C(=O)N[C@@H](CCCNC(=N)N)C(=O)N[C@@H](CCCNC(=N)N)C(=O)N[C@H](C(=O)N[C@@H](CCC(=O)O)C(=O)N[C@@H](Cc1c[nH]c2ccccc12)C(=O)N[C@@H](CC(C)C)C(=O)N[C@@H](CCCNC(=N)N)C(=O)N[C@@H](CCCCN)C(=O)N[C@@H](CCCCN)C(=O)N[C@@H](CC(C)C)C(=O)N[C@@H](CCC(N)=O)C(=O)N[C@@H](CC(=O)O)C(=O)N[C@H](C(N)=O)C(C)C)C(C)C` [Met^18→Cha] (H-AVSEIQLMHNLGKHLNS[Cha]RRVEWLRKKLQDV-NH2; N-terminus assumed): in data set [1], the CD helical residues is listed as 8. Besides, at PTHR-delNt (setting [2]), the IC50 stood at 408 ± 32 nM.

As for “AVSEIQLMHNLGKHLNSMRRVEELRKKLQDV-NH2 [Trp^23→Glu]”, the CD helical residues in data set [1] is 7. Moreover, on PTHR-delNt (COS-7 membranes), the “effect on binding to PTHR-delNt (in words)” value is “only mildly impaired binding to PTHR-delNt” and the “reduction (alteration) of binding affinity for PTHR-delNt relative to parent peptide” value was “less than three-fold”. In addition, the IC50 at PTHR-delNt (setting [2]) is 434 ± 84 nM.

In the case of `CC[C@H](C)[C@H](NC(=O)[C@H](CCC(=O)O)NC(=O)[C@H](CO)NC(=O)[C@@H](NC(=O)[C@H](C)N)C(C)C)C(=O)N[C@@H](CCC(N)=O)C(=O)N[C@@H](CC(C)C)C(=O)N[C@@H](CCSC)C(=O)N[C@@H](Cc1c[nH]cn1)C(=O)N[C@@H](CC(N)=O)C(=O)N[C@@H](CC(C)C)C(=O)NCC(=O)N[C@@H](CCCCN)C(=O)N[C@@H](Cc1c[nH]cn1)C(=O)N[C@@H](CC(C)C)C(=O)N[C@@H](CC(N)=O)C(=O)N[C@@H](CO)C(=O)N[C@@H](CCSC)C(=O)N[C@@H](CC1CCCCC1)C(=O)N[C@@H](CCCNC(=N)N)C(=O)N[C@H](C(=O)N[C@@H](CCC(=O)O)C(=O)N[C@@H](Cc1c[nH]c2ccccc12)C(=O)N[C@@H](CC(C)C)C(=O)N[C@@H](CCCNC(=N)N)C(=O)N[C@@H](CCCCN)C(=O)N[C@@H](CCCCN)C(=O)N[C@@H](CC(C)C)C(=O)N[C@@H](CCC(N)=O)C(=O)N[C@@H](CC(=O)O)C(=O)N[C@H](C(N)=O)C(C)C)C(C)C` [Arg^19→Cha] (H-AVSEIQLMHNLGKHLNSM[Cha]RVEWLRKKLQDV-NH2; N-terminus assumed), the CD helical residues in data set [1] is on record as 10. In addition, the IC50 at PTHR-delNt (setting [2]) is 780 ± 83 nM.

With `CC[C@H](C)[C@H](NC(=O)[C@H](CCC(=O)O)NC(=O)[C@H](CO)NC(=O)[C@@H](NC(=O)[C@H](C)N)C(C)C)C(=O)N[C@@H](CCC(N)=O)C(=O)N[C@@H](CC(C)C)C(=O)N[C@@H](CCSC)C(=O)N[C@@H](Cc1c[nH]cn1)C(=O)N[C@@H](CC(N)=O)C(=O)N[C@@H](CC(C)C)C(=O)NCC(=O)N[C@@H](CCCCN)C(=O)N[C@@H](Cc1c[nH]cn1)C(=O)N[C@@H](CC(C)C)C(=O)N[C@@H](CC(N)=O)C(=O)N[C@@H](CO)C(=O)N[C@@H](CCSC)C(=O)N[C@@H](CCCNC(=N)N)C(=O)N[C@@H](CCCNC(=N)N)C(=O)N[C@H](C(=O)N[C@@H](CCC(=O)O)C(=O)N[C@@H](Cc1c[nH]c2ccccc12)C(=O)N[C@@H](CC(C)C)C(=O)N[C@@H](CC1CCCCC1)C(=O)N[C@@H](CCCCN)C(=O)N[C@@H](CCCCN)C(=O)N[C@@H](CC(C)C)C(=O)N[C@@H](CCC(N)=O)C(=O)N[C@@H](CC(=O)O)C(=O)N[C@H](C(N)=O)C(C)C)C(C)C` [Arg^25→Cha] (H-AVSEIQLMHNLGKHLNSMRRVEWL[Cha]KKLQDV-NH2; N-terminus assumed), the CD helical residues in data set [1] is listed as 9. On PTHR-delNt (COS-7 membranes), the “reduction (alteration) of binding affinity for PTHR-delNt relative to parent peptide” value was “approximately five- to seven-fold”. Also, on PTHR-delNt (PTHR-delNT (COS-7) IC50, [Ala1,Arg19]hPTH(1-31)NH2 analogs), the IC50 is 2710 ± 1310 nM.

Values taken from patent US8143374B2, “Polypeptide derivatives of parathyroid hormone (PTH)” (The General Hospital Corporation, priority 2006, dated 2012).
